Data from patent US20040131567A1 (priority 2002, published 2004).

Columns and labels:
[1] = tested on: dry/cracking and scaly elbows; type: in vivo, human; conditions: regimen tried prior to the inventive composition
psoriasis = conditions: in vivo
[2] = tested on: Bacillus anthracis Stearns strain; type: cell-based
[3] = tested on: Bacillus anthracis Ames strain; type: cell-based
[4] = tested on: Paenibacillus polymyxa, Bacillus licheniformis, Bacillus subtilis, Bacillus sphaericus, Bacillus cereus and a wild Bacillus strain; type: cell-based, Bacillus species; conditions: for average zone of inhibition: 3 replicate assays
Staphylococcus aureus = type: cell-based; design: key: NG = no growth; conditions: S. aureus >10^5 CFU/ml inoculated into 2 ml d-limonene
[5] = tested on: Staphylococcus epidermidis; type: cell-based; design: key: NG = no growth; conditions: S. epidermidis >10^5 CFU/ml inoculated into 2 ml d-limonene
Enterococcus faecalis = type: cell-based; design: key: NG = no growth; conditions: E. faecalis >10^5 CFU/ml inoculated into 2 ml d-limonene
Enterococcus faecium = type: cell-based; design: key: NG = no growth; conditions: E. faecium >10^5 CFU/ml inoculated into 2 ml d-limonene
Escherichia coli = type: cell-based; design: key: NG = no growth; conditions: E. coli >10^5 CFU/ml inoculated into 2 ml d-limonene
Enterobacter cloacae = type: cell-based; design: key: NG = no growth
Klebsiella pneumoniae = type: cell-based; design: key: NG = no growth; conditions: K. pneumoniae >10^5 CFU/ml inoculated into 2 ml d-limonene
Serratia marcescens = type: cell-based; design: key: NG = no growth
Pseudomonas aeruginosa = type: cell-based; design: key: NG = no growth; conditions: P. aeruginosa >10^5 CFU/ml inoculated into 2 ml d-limonene
[6] = tested on: Acinetobacter baummii/haemolyticus; type: cell-based; design: key: NG = no growth; conditions: Ac. baum/haemo >10^5 CFU/ml inoculated into 2 ml d-limonene
[7] = tested on: Stenotrophomonas maltophila; type: cell-based; design: key: NG = no growth
[8] = tested on: gram-positive and gram-negative pathogens; type: cell-based
[9] = tested on: Staphylococcus aureus, Staphylococcus epidermidis, Streptococcus pyogenes, Streptococcus mutans, other beta hemolytic streptococci, Entercoccus faecalis …; type: cell-based; conditions: in vitro
[10] = tested on: Escherichia coli, Enterobactor cloacae, Klebsiella pneumoniae, Serratia marcescens, Pseudomonas aeruginosa, Acinetobacter baummii/haemolyticus, Paenibacillus …; type: cell-based; conditions: in vitro
[11] = tested on: Bacillus licheniformis, B. sphaericus, Bacillus cereus, Bacillus subtilus, Bacillus anthracis (Stearns and Ames strains); type: cell-based, Bacillus species

Compound: Vitamin E
- effect of earlier regimen on the condition [1]: no improvement
- effect of earlier treatments on the psoriasis (psoriasis): no results

Compound: OCl [NaOCl, sodium hypochlorite]
- susceptibility of the strain to the product [2]: susceptible to all products tested except
- zone of inhibition [3]: no zones of inhibition
- average zone size ([4]; only the inhibited strains P. Polymyxa, B. sphaericus and B. cereus): 16 mm
- inhibition of the Bacillus strains (which strains) ([4]; six Bacillus strains): only inhibited P. Polymyxa, B. sphaericus and B. cereus

Compound: NCc1ccc(S(N)(=O)=O)cc1 [mafenide acetate]
- susceptibility of the strain to the product [2]: susceptible
- susceptibility of the strain to the product [3]: susceptible
- average zone of inhibition ([4]; six Bacillus strains): 36 mm

Compound: O=[N+]([O-])[O-].[Ag+] [AgNO3, silver nitrate]
- zone of inhibition (average inhibition zone) [2]: 18 mm
- zone of inhibition [3]: 16 mm
- average zone of inhibition ([4]; six Bacillus strains): 16 mm

Compound: O=C(O)c1cn(C2CC2)c2cc(N3CCNCC3)c(F)cc2c1=O [CIPRO]
- effect of earlier treatments on the psoriasis (psoriasis): Neither treatment was effective
- side effects (psoriasis): unpleasant side effects

Compound: COc1cc(C)c(/C=C/C(C)=C/C=C/C(C)=C/C(=O)O)c(C)c1C [SORIATANE]
- effect of earlier treatments on the psoriasis (psoriasis): Neither treatment was effective
- side effects (psoriasis): unpleasant side effects

Compound: NC(=O)N/N=C/c1ccc([N+](=O)[O-])o1 [Furacin, nitrofurazone]
- average zone of inhibition ([4]; six Bacillus strains): 35 mm

Compound: d-limonene
- Growth at 24 hr (Staphylococcus aureus; 24 hr): NG*
- Growth at 48 hr (Staphylococcus aureus; 48 hr): NG
- Growth at 72 hr (Staphylococcus aureus; 72 hr): NG
- Growth at 24 hr ([5]; 24 hr): NG
- Growth at 48 hr ([5]; 48 hr): NG
- Growth at 72 hr ([5]; 72 hr): NG
- Growth at 24 hr (Enterococcus faecalis; 24 hr): NG
- Growth at 48 hr (Enterococcus faecalis; 48 hr): NG
- Growth at 72 hr (Enterococcus faecalis; 72 hr): NG
- Growth at 24 hr (Enterococcus faecium; 24 hr): NG
- Growth at 48 hr (Enterococcus faecium; 48 hr): NG
- Growth at 72 hr (Enterococcus faecium; 72 hr): NG
- Growth at 24 hr (Escherichia coli; 24 hr): NG
- Growth at 48 hr (Escherichia coli; 48 hr): NG
- Growth at 72 hr (Escherichia coli; 72 hr): NG
- Growth at 24 hr (Enterobacter cloacae): NG
- Growth at 48 hr (Enterobacter cloacae): NG
- Growth at 72 hr (Enterobacter cloacae): NG
- Growth at 24 hr (Klebsiella pneumoniae; 24 hr): NG
- Growth at 48 hr (Klebsiella pneumoniae; 48 hr): NG
- Growth at 72 hr (Klebsiella pneumoniae; 72 hr): NG
- Growth at 24 hr (Serratia marcescens): NG*
- Growth at 48 hr (Serratia marcescens): NG
- Growth at 72 hr (Serratia marcescens): NG
- Growth at 24 hr (Pseudomonas aeruginosa; 24 hr): NG
- Growth at 48 hr (Pseudomonas aeruginosa; 48 hr): NG
- Growth at 72 hr (Pseudomonas aeruginosa; 72 hr): NG
- Growth at 24 hr ([6]; 24 hr): NG
- Growth at 48 hr ([6]; 48 hr): NG
- Growth at 72 hr ([6]; 72 hr): NG
- Growth at 24 hr [7]: NG
- Growth at 48 hr [7]: NG
- Growth at 72 hr [7]: NG
- effectiveness in killing or inhibiting growth of gram-positive and gram-negative bacteria [8]: effective in killing or inhibiting the growth
- time within which all pathogens tested were effectively eradicated [8]: ≤ 24 h
- zone of inhibition (average inhibition zone) [2]: 30 mm
- zone of inhibition [3]: 21 mm
- average zone of inhibition ([4]; six Bacillus strains): 21 mm
- effectiveness in eradicating gram-positive pathogens [9]: effective in eradicating
- effectiveness in eradicating gram-negative pathogens [10]: effective in eradicating
- effectiveness in eradicating Bacillus species [11]: effective in eradicating
